Test results published in the supplement of paper PMC10307832.

Experiments:
Experiment in all cases: relative viability (nuclei count vs DMSO), 5 days (fraction); higher = more cells survive
[1] = compound: CCN(CCO)CCCC(C)Nc1ccnc2cc(Cl)ccc12 [Hydroxychloroquine] + C[C@@H](Oc1cc(-c2cnn(C3CCNCC3)c2)cnc1N)c1c(Cl)ccc(F)c1Cl [Crizotinib] (partner 1 µM)
Method in brief: (§1)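 Medians of duplicate plates are given as relative viability. That measure is the nuclei count in treated wells divided by the count in vehicle wells. Counts were taken on 4× images of lung cancer cell lines in 1536-well plates, 5 days after pin-tool dosing the day after seeding with one drug alone or a fixed anchor-drug dose plus five library-drug doses (not always all listed) in √10 steps.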

[2] = compound: CCN(CCO)CCCC(C)Nc1ccnc2cc(Cl)ccc12 [Hydroxychloroquine] + N=C(N)NC(=N)NCCc1ccccc1 [Phenformin] (partner 250 µM)
Method in brief: as §1

[3] = compound: CCN(CCO)CCCC(C)Nc1ccnc2cc(Cl)ccc12 [Hydroxychloroquine] + COc1cccc2cc(-c3nc([C@H]4CC[C@H](C(=O)O)CC4)n4ncnc(N)c34)[nH]c12 [OSI-027] (partner 0.5 µM)
Method in brief: as §1

[4] = compound: CCN(CCO)CCCC(C)Nc1ccnc2cc(Cl)ccc12 [Hydroxychloroquine] + CC(=O)Nc1cccc(-n2c(=O)n(C3CC3)c(=O)c3c(Nc4ccc(I)cc4F)n(C)c(=O)c(C)c32)c1 [Trametinib] (partner 0.02 µM)
Method in brief: as §1

Cell Line | relative viability ([1]; first compound 0.5 µM) | relative viability ([1]; first compound 1.581 µM) | relative viability ([1]; first compound 5 µM) | relative viability ([1]; first compound 15.81 µM) | relative viability ([1]; first compound 50 µM) | relative viability ([2]; first compound 0.5 µM) | relative viability ([2]; first compound 1.581 µM) | relative viability ([2]; first compound 5 µM) | relative viability ([2]; first compound 15.81 µM) | relative viability ([2]; first compound 50 µM) | relative viability ([3]; first compound 0.5 µM) | relative viability ([3]; first compound 1.581 µM) | relative viability ([3]; first compound 5 µM) | relative viability ([3]; first compound 15.81 µM) | relative viability ([3]; first compound 50 µM) | relative viability ([4]; first compound 0.5 µM) | relative viability ([4]; first compound 1.581 µM) | relative viability ([4]; first compound 5 µM) | relative viability ([4]; first compound 15.81 µM) | relative viability ([4]; first compound 50 µM)
HCC-366 | 0.698 | 0.607 | 0.402 | 0.514 | 0.612 | 0.564 | 0.558 | 0.597 | 0.605 | 0.657 | 0.896 | 0.932 | 0.673 | 0.862 | 1.05 | 0.334 | 0.323 | 0.355 | 0.282 | 0.458
HCC-827 | 0.86 | 0.916 | 1.01 | 0.976 | 0.871 | 0.447 | 0.339 | 0.359 | 0.395 | 0.414 | 0.802 | 0.572 | 0.821 | 1.03 | 0.763 | 0.506 | 0.479 | 0.488 | 0.563 | 0.531
HOP-62 | 0.954 | 0.836 | 0.843 | 1.05 | 0.744 | 0.557 | 0.603 | 0.762 | 0.686 | 0.755 | 0.877 | 0.892 | 0.843 | 0.825 | 0.767 | 0.37 | 0.387 | 0.386 | 0.397 | 0.341
IA-LM | 0.839 | 0.95 | 0.898 | 0.718 | 0.899 |  |  |  |  |  |  |  |  |  |  |  |  |  |  | 
LC-2-ad | 0.44 | 0.426 |  | 0.473 | 0.547 | 0.587 | 0.521 | 0.573 | 0.632 | 0.54 | 0.953 | 0.793 | 0.853 | 0.805 | 0.868 | 0.925 | 0.98 | 0.941 | 0.865 | 0.924
LCLC-97TM1 | 0.379 | 0.259 | 0.4 | 0.449 | 0.481 | 0.435 | 0.409 | 0.488 | 0.422 | 0.384 | 0.614 | 0.465 | 0.569 | 0.563 | 0.622 | 0.208 | 0.185 | 0.196 | 0.23 | 0.16
LCLC-103H | 1.03 | 1.01 | 0.951 | 1.04 | 1.14 | 0.347 | 0.33 | 0.341 | 0.335 | 0.346 | 0.482 | 0.488 | 0.547 | 0.465 | 0.562 | 0.684 | 0.642 | 0.678 | 0.719 | 0.695
LK-2 | 0.246 |  | 0.198 | 0.181 | 0.197 | 0.37 | 0.314 |  | 0.33 | 0.574 | 0.201 | 0.198 | 0.155 | 0.206 | 0.208 | 0.864 | 0.599 | 0.707 | 0.876 | 1.01
LOU-NH91 | 0.726 | 0.727 | 0.742 | 0.739 | 0.741 | 0.704 | 0.562 | 0.679 | 0.732 | 0.466 | 0.667 | 0.616 | 0.758 | 0.701 | 0.736 | 0.795 | 0.69 | 0.799 | 0.828 | 0.848
LU99A | 0.566 | 0.533 | 0.593 | 0.606 | 0.66 | 0.765 | 0.735 | 0.873 | 0.751 | 0.799 | 0.304 | 0.258 | 0.327 | 0.283 | 0.329 | 0.626 | 0.505 | 0.542 | 0.527 | 0.577
LXF-289 | 0.838 | 0.773 | 0.803 | 0.822 | 0.853 | 0.533 | 0.513 | 0.517 | 0.505 | 0.495 | 0.78 | 0.77 | 0.751 | 0.781 | 0.792 | 0.659 | 0.689 | 0.674 | 0.72 | 0.759
NCI-H23 | 0.473 | 0.537 | 0.579 | 0.446 | 0.603 | 0.803 | 0.76 | 0.806 | 0.797 | 0.829 | 0.684 | 0.447 | 0.572 | 0.535 | 0.572 | 0.387 | 0.387 | 0.364 | 0.36 | 0.327
NCI-H522 |  |  |  |  |  | 0.647 | 0.581 | 0.702 | 0.717 | 0.623 | 0.718 | 0.671 | 0.712 | 0.684 | 0.682 | 0.674 |  | 0.915 | 0.65 | 0.805
NCI-H1395 |  |  |  |  |  | 0.465 | 0.445 | 0.451 | 0.456 | 0.43 | 0.67 | 0.566 | 0.639 | 0.638 | 0.549 | 1.09 | 0.972 | 0.862 | 1.02 | 0.949
NCI-H1563 | 0.808 | 0.833 | 0.848 | 0.83 | 0.806 | 0.677 | 0.652 | 0.649 | 0.635 | 0.635 | 0.736 | 0.625 | 0.79 | 0.794 | 0.716 |  |  |  |  | 
NCI-H1648 |  |  |  |  |  |  |  |  |  |  |  | 0.283 | 0.273 | 0.254 | 0.274 | 0.499 | 0.434 | 0.437 | 0.57 | 0.414
NCI-H1703 | 0.851 |  | 0.592 | 0.74 | 0.921 |  |  |  |  |  |  |  |  |  |  |  |  |  |  | 
NCI-H1793 |  |  |  |  |  | 0.38 | 0.325 | 0.364 | 0.351 | 0.36 | 0.334 | 0.226 | 0.226 | 0.234 | 0.262 | 0.405 | 0.463 | 0.475 | 0.416 | 0.344
NCI-H2342 |  |  |  |  |  | 0.59 | 0.588 | 0.561 | 0.619 | 0.645 | 0.585 | 0.578 | 0.613 | 0.68 | 0.69 | 0.868 | 0.923 | 0.908 | 0.804 | 0.881
SW 900 |  |  |  |  |  | 0.514 | 0.496 | 0.509 | 0.585 | 0.513 | 0.491 | 0.664 | 0.482 | 0.547 | 0.505 | 0.761 | 1.01 | 0.779 | 0.879 | 0.806
